For 2 compounds, IC50 and EC50 results are on record in patent EP4592286A1, “MACROCYCLIC NITROGEN-CONTAINING CROWN ETHER COMPOUND AND USE THEREOF AS PROTEIN KINASE INHIBITOR” (Artivila Biopharma, priority 2022, dated 2024).

Format in all cases: cell-based
For one test, the system named is Mia Paca-2 cells. In words: CDK9 cell activity test (Cell Titer-GLO cell growth inhibition), Mia Paca-2. Conditions: Homo sapiens, 72 hours. The protocol:
(§1) In these experiments, the cell line MV-4-11 was cultured in IMDM culture solution (containing 100 U/mL penicillin and 0.1 g/L streptomycin), the cell line HCC1187 was cultured in RPMI-1640 culture solution (containing 100 U/mL penicillin and 0.1 g/L streptomycin) containing 10% fetal bovine serum, the cell line Mia Paca-2 was cultured in DMEM (containing 100 U/mL penicillin and 0.1 g/L streptomycin) containing 10% fetal bovine serum and 2.5% horse serum, and the cell line A375 was cultured in RPMI-1640 culture solution (containing 100 U/mL penicillin and 0.1 g/L streptomycin) containing 10% fetal bovine serum. All cells were cultured in a saturated humidity incubator with 37 °C and 5% CO2.
(§2) When MV-4-11 cells, HCC-1187 cells, Mia Paca-2 cells and A375 cells grew to 80% -90% confleuncy, they were digested with trypsin, resuspended, counted and diluted to a certain cell density with complete medium, and inoculated into 96-well plate at 100 µL/well. […] The cells were lysed by mixing evenly for 2 minutes using a shaker, incubated at room temperature for 60 minutes to stabilize the chemiluminescence signal, and the chemiluminescence was read by PE EnVision microtiter plate reader. The cell growth inhibition rate Inh%=(DMSO well - compound treatment well)/(DMSO well - background well)×100 was calculated, and the cell growth IC50 value was obtained by fitting with GraphPad Prism 5 .
A general note: ATP-based viability assays read luminescence as a measure of living cells.

In the next test the test system is HCC-1187 cells. As to the kind of experiment: CDK9 cell activity test (Cell Titer-GLO cell growth inhibition), HCC1187. To be noted: Homo sapiens, HCC1187, 72 h. As to the method: as §1, §2
For a further test, the system named is MV-4-11 cells. In words: CDK9 cell activity test (Cell Titer-GLO cell growth inhibition), MV-4-11. Conditions: Homo sapiens, MV4-11, 72 hours. The protocol:
as §1
When MV-4-11 cells, HCC-1187 cells, Mia Paca-2 cells and A375 cells grew to 80% -90% confleuncy, they were digested with trypsin, resuspended, counted and diluted to a certain cell density with complete medium, and inoculated into 96-well plate at 100 µL/well. With complete medium as background control, they were cultured overnight in a saturated humidity incubator with 37°C and 5% CO2. The compound was diluted to 200-fold of the final concentration using DMSO, 3 µL of DMSO storage solution of the above compound was added to 197 µL of complete medium, 50 µL of compound diluted in medium was added to cells in each well, and cultivated in a saturated humidity incubator with 37°C and 5% CO2 for 72 hours. After 72 hours, the culture plate was placed at room temperature for equilibrium, and 40 µl of Cell Titer-GLO® reagent was added to each well. The cells were lysed by mixing evenly for 2 minutes using a shaker, incubated at room temperature for 60 minutes to stabilize the chemiluminescence signal, and the chemiluminescence was read by PE EnVision microtiter plate reader. The cell growth inhibition rate Inh%=(DMSO well - compound treatment well)/(DMSO well - background well)×100 was calculated, and the cell growth IC50 value was obtained by fitting with GraphPad Prism 5 .

The next test deals with A375 cells. In words: CDK9 cell activity test (Cell Titer-GLO cell growth inhibition), A375. Conditions: Homo sapiens, A-375, 72 hours. As to the method: as §1, §2
A further test deals with T1, wild-type LRRK2 (Homo sapiens, UniProt Q5S007).
T1 construct: pCMV-flag-WT LRRK2 (full-length); expressed in transfected cells; host or cells: HEK293T
In words: detection of phosphorylated S935 in HEK293T overexpressing wild-type LRRK2. To be noted: pS935, HEK293T overexpressing wild-type LRRK2, 1.5 hours. In short, it runs like this:
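HEK293T cells transiently transfected with full-length FLAG-LRRK2 G2019S or wild-type LRRK2 for 20-24 h, then treated with compound (0.5% DMSO) for 1.5 h at 37°C. Cells PFA-fixed and immunostained for pS935 (1:1000) with DNA counterstain; fluorescence read on Odyssey imager.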

pEC50, pIC50: −log10 of the molar value.

T1 sequence (Q5S007 whole entry): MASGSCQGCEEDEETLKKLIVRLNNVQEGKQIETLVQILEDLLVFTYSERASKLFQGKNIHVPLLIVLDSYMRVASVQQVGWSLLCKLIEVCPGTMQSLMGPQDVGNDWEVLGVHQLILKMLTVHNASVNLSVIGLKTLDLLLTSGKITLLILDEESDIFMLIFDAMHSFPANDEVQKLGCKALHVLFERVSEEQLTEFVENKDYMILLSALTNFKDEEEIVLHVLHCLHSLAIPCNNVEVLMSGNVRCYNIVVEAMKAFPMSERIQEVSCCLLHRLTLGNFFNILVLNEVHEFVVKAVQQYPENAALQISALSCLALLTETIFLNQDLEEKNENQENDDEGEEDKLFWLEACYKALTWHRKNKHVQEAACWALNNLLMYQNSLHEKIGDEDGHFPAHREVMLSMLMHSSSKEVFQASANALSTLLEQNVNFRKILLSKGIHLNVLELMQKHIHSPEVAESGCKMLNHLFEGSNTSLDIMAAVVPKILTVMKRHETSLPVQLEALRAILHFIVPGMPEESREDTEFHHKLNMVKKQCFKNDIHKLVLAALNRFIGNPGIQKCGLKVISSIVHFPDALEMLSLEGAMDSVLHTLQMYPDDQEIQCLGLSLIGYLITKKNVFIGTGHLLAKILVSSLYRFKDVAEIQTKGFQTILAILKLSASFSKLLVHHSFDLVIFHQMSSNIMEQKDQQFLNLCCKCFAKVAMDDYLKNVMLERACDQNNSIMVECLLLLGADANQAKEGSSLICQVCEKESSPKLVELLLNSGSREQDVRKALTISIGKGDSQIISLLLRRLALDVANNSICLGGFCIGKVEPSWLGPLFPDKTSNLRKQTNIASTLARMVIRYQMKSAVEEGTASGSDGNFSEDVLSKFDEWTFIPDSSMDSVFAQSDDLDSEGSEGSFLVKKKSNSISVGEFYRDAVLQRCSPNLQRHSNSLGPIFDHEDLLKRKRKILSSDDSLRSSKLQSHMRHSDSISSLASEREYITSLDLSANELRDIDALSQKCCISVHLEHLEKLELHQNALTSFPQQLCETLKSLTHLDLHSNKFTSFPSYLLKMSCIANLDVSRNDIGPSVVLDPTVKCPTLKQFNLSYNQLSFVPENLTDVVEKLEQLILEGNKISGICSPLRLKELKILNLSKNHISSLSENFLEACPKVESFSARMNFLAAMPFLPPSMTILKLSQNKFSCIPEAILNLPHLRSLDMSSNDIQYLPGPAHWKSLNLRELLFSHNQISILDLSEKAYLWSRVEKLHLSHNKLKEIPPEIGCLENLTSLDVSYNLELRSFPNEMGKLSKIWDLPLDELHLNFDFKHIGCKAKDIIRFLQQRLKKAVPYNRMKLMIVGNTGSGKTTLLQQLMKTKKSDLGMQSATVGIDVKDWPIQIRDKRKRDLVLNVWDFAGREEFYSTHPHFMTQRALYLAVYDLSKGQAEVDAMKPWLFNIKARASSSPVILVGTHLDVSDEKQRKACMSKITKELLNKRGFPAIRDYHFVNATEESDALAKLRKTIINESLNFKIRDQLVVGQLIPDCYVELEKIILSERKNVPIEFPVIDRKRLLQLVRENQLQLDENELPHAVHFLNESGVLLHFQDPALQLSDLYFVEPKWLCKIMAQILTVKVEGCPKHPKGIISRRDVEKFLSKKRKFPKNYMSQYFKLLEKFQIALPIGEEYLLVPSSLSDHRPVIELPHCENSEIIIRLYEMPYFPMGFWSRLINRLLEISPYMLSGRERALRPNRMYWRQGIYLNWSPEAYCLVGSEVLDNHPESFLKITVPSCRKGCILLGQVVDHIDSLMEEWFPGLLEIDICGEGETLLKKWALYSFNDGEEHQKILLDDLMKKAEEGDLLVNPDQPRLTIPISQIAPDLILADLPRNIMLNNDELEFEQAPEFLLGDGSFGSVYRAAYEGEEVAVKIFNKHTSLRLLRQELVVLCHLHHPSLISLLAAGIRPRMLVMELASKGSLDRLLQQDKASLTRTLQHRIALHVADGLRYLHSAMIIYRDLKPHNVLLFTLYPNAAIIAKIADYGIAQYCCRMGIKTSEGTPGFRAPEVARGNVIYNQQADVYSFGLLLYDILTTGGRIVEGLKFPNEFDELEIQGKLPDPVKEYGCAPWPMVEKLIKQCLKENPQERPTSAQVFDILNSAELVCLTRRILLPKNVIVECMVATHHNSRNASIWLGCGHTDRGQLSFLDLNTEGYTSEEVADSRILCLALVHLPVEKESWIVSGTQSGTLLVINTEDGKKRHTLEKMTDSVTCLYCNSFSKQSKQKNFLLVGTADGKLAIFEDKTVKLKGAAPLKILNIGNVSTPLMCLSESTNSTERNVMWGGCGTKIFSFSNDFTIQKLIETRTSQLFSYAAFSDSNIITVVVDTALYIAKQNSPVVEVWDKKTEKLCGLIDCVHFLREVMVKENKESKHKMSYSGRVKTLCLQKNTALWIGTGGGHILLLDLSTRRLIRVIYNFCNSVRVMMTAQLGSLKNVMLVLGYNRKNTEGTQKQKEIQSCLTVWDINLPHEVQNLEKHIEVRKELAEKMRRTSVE

`CN1CCOCCOc2cc(Nc3ncc(F)c(-c4ccc(C(=O)NCC#N)cc4)n3)ccc2OCC1` [Example 16, N-(cyanomethyl)-4-(5-fluoro-2-((7-methyl-2,3,6,7,8,9-hexahydro-5H-benzo[b][1,4,7]trioxa[10]azacyclododecan-13-yl)amino)pyrimidin-4-yl)benzamide]: the pIC50 is 6.00 to 7.00 with Mia Paca-2 cells; 5.30 to 6.00 in the test with HCC-1187 cells (first HCC1187 column (c2)); 6.00 to 7.00 with HCC-1187 cells (second HCC1187 column (c3)); greater than 7.00 with MV-4-11 cells; 6.00 to 7.00 in the test with A375 cells.
In turn, `CCS(=O)(=O)N1CC(CC#N)(n2cc(-c3nc(Nc4ccc5c(c4)OCCN(C)CCO5)nc4[nH]ccc34)cn2)C1` [Example 28, 2-(1-(ethylsulfonyl)-3-(4-(2-((4-methyl-3,4,5,6-tetrahydro-2H-benzo[b][1,4,7]dioxazolin-9-yl)amino)-7H-pyrrolo[2,3-d]pytimidin-4-yl)-1H-pyrazol-1-yl)azetidin-3-yl) acetonitrile] showed a pEC50 at wild-type LRRK2 greater than 6.30.

One may read the pIC50 as −log10 of the IC50, conventionally taken in molar units. A higher pIC50 goes with a low IC50. Broadly, the pEC50 is the EC50 on a negative log10 scale, so that one unit is a factor of ten.
